The record followed here is patent US20060204481A1, “Methods of promoting cell viability” (priority 2003, published 2006).

One assay relates to pancreatic islet cells. Nature of the assay: Apoptosis (TUNEL) of pancreatic islet cells in vitro. Type of assay: cell-based. The following applies: 2 days in vitro. The protocol: As another example, TUDCA was also effective in reducing apoptosis of pancreatic islet cells after 2 days in vitro. The number of TUNEL-positive cells was approximately 29 in non-treated controls, but only 12 in cells exposed to TUDCA. The more than 50% reduction by apoptosis by TUDCA was achieved after exposure of cells to TUDCA during the isolation procedure, followed by incubation with the bile acid during culture in vitro.

The subject of a further assay is 6-OHDA lesioned rats. Nature of the assay: Amphetamine-induced rotation test after nigral grafting in unilateral 6-OHDA lesioned rats. It counts as in vivo, rat. From the text: A total of 24 adult female Sprague-Dawley (SD) rats, weighing about 250 grams (g) at the beginning of the experiments were used as subjects of neural grafts. Among them, 12 rats were subjected to an extensive unilateral 6-hydroxydopamine (6-OHDA) lesion of the mesostriatal dopamine (DA) system and 12 rats were normal.
The 6-OHDA lesioned rats and normal rats were randomly assigned to the TUDCA-treated (n=6 in each group) or the vehicle control (n=6 in each group) group, respectively. The rats were housed 2 per cage under a 12 hour day-night cycle with ad libitum access to food and water. They were maintained and treated in accordance with published National Institutes of Health guidelines.
For the TUDCA-treated rats, a 50 μM concentration of TUDCA was added to the media when nigral tissue was trypsinized and dissociated. Two microliters of cell suspension containing TUDCA were then stereotaxically injected into the striatum of SD rats. For the control animals, the same amount of vehicle solution was added to the media. In the first series of transplantation experiment, normal rats that received neural transplants were sacrificed 4 days post-grafting and brain sections were prepared for the terminal deoxynucleotidyl transferase (TdT)-mediated dUTP-biotin nick end labeling (TUNEL) assay to determine apoptosis in the transplantation areas. In the second series of transplantation experiments, an amphetamine-induced rotation test was used to assess the completeness of the 6-OHDA lesions prior to grafting, and repeated two and six weeks after transplantation to monitor functional effects of the neural grafts. The rats were sacrificed after the last session of the rotational behavioral test and the brain tissue was processed for tyrosine hydroxylase (TH)-immunocytochemistry. Graft survival was assessed by counting the number of TH-positive neurons in the grafts.
Two injections of 6-OHDA (hydrochloride salt, Sigma, St. Louis Mo.) were made into the right ascending mesostriatal DA pathway under equithesin anaesthesia (0.3 ml/100 g body wt. i.p.) as described previously (W.-M. Duan et al., Neuroscience 57:261-274; 1993). Briefly, a first injection of 2.5 microliter (μl) of 6-OHDA (3 microgram/microliter (μg/μl), free base, in 0.2 mg/ml ascorbate-saline) was performed at the following coordinates: 4.4 millimeter (mm) caudal to bregma; 1.2 mm lateral to midline; 7.8 mm ventral to the dural surface; with the tooth-bar set at 2.4 mm below the interaural line. A second injection of 2 μl of 6-OHDA was performed at the following coordinates; 4.0 millimeter (mm) caudal to bregma; 0.8 mm lateral to midline; 8.0 mm ventral to the dural surface; with the tooth-bar set at 3.4 mm above the interaural line. The 6-OHDA was infused at a rate of 1 μl/min, and the cannula was left in place for an additional 4 min before it was withdrawn.
Two to three weeks after the lesion surgery, the rats were given 5 milligram per kilogram (mg/kg) of d-amphetamine sulphate (Sigma, St. Louis Mo.) in saline, i.p. and their rotational behavior was monitored in automated rotometer bowls for 90 min (U. Ungerstedt et al., Brain Res. 24: 485-493; 1970). […] The rotational test was then repeated at two different time-points as mentioned in the experimental design.
A cell suspension technique was used to perform the neural transplants as previously described (A. Björklund et al., Acta. Physiol. Scand. Suppl. 522:9-18; 1983; P. Brundin et al., In: P. M. Conn, ed., Methods in Neurosciences, Lesions and Transplantation, Academic Press, San Diego, Vol 7, 1991:305-326). Briefly, VM tissue was obtained from embryos with a crown-to-rump length of 13-14 mm, corresponding to a gestational age of embryonic day 14. Dissection and preparation of the donor tissue were carried out under aseptic conditions in Hank's balanced salt solution (HBSS) (Gibco, Carlsbad, Calif.). […]

Assay [1] relates to TUNEL-positive cells in the grafted areas. As to the kind of experiment: TUNEL assay of apoptosis in graft areas 4 days post-transplantation. The following applies: normal rats, p<0.01. It counts as in vivo, rat. The protocol:
For the TUDCA-treated rats, a 50 μM concentration of TUDCA was added to the media when nigral tissue was trypsinized and dissociated. Two microliters of cell suspension containing TUDCA were then stereotaxically injected into the striatum of SD rats. For the control animals, the same amount of vehicle solution was added to the media. In the first series of transplantation experiment, normal rats that received neural transplants were sacrificed 4 days post-grafting and brain sections were prepared for the terminal deoxynucleotidyl transferase (TdT)-mediated dUTP-biotin nick end labeling (TUNEL) assay to determine apoptosis in the transplantation areas. […] Graft survival was assessed by counting the number of TH-positive neurons in the grafts.
A cell suspension technique was used to perform the neural transplants as previously described (A. Björklund et al., Acta. Physiol. Scand. Suppl. 522:9-18; 1983; P. Brundin et al., In: P. M. Conn, ed., Methods in Neurosciences, Lesions and Transplantation, Academic Press, San Diego, Vol 7, 1991:305-326). […] Before and after transplantation, the viabilities of the cell suspensions were assessed by the trypan blue dye exclusion method. […]

Turning to `C[C@H](CCC(=O)NCCS(=O)(=O)O)[C@H]1CC[C@H]2[C@@H]3[C@@H](O)C[C@@H]4C[C@H](O)CC[C@]4(C)[C@H]3CC[C@]12C` [TUDCA, tauroursodeoxycholic acid], the “number of TUNEL-positive cells” value with pancreatic islet cells (TUDCA during isolation and culture, non-treated controls approximately 29) came out at 12. The reduction of apoptosis result with pancreatic islet cells (versus non-treated controls) is recorded as “more than 50%”. Moreover, the “mean net rotation values compared to pregrafting values” in the assay with 6-OHDA lesioned rats (2 weeks after grafting, p<0.01, not in control group) is recorded as “significantly reduced”. In the assay with 6-OHDA lesioned rats (2 weeks after transplantation, cell suspension pre-treated with 50 μM TUDCA, none of the control animals), the “rats exhibiting at least 50% reduction in net motor asymmetry compared to pre-transplantation values” is 4 of 6. Also, the “net asymmetry values compared to control group” value with 6-OHDA lesioned rats (2 weeks after transplantation, p<0.05) is “lower net asymmetry values than the control group”. Besides, the “motor asymmetry scores compared to pregrafting” value in the assay with 6-OHDA lesioned rats (6 weeks after surgery, p<0.05, both groups) is “significantly reduced motor asymmetry scores”. In the assay with 6-OHDA lesioned rats (6 weeks after surgery, p>0.05), the “difference in motor asymmetry scores between TUDCA-treated and control groups” value is on record as “not longer any difference”. Moreover, the “reduction in motor asymmetry scores” value in the assay on 6-OHDA lesioned rats (6 weeks following transplantation, all rats of both control and TUDCA-treated groups) is recorded as more than 50%. The “number of apoptotic (TUNEL-positive) cells in the grafted areas compared to control group” value in assay [1] is “significantly smaller”.
